Laboratory results as given in US20100022415A1, “ACTIVE CARRIER, ITS PRODUCTION AND ITS USE” (AVICOR KET., priority 2006, published 2010).

Tested on: streptavidin
Test: Affinity chromatography: elution of labeled streptavidin from biotinylated glass beads
Assay type: binding
Conditions: washing with solutions of increasing concentrations; absorbance of eluate (FIG. 5)
Protocol: The biotinylated glass beads were added to 1 ml PBS, to which 50 μg of streptavidin labeled with Cy5 fluorescent dye was added (total dye: 0.3 OD640/ml). The resulting solution was stirred, then OD640 was measured again, the detected value was 0.003. […] Two chromatographic analyses were performed to verify the specific binding. During the first, 100 mg of the biotinylated glass beads was washed with biotin solutions with increasing concentrations, and in the second, the column containing biotinylated glass beads was washed with benzamidine solutions of increasing concentrations. The absorbance of the eluate was measured continuously (FIG. 5).

SMILES: O=C(O)CCCC[C@@H]1SC[C@@H]2NC(=O)N[C@@H]21 [biotin]
- Elution of fluorescent labeled streptavidin from biotinylated glass beads: could be eluted only with the biotin solution
